Assays:
[1] = system: Larven des Teppichkäfers (Anthrenus flavipes var. seminiveus); experiment: Fastness test against carpet beetle larvae (SNV 195901) on wool treated by pad (Foulard) application, Example 5; assay type: in vivo; details: 15 larvae, 14 days, 28°C, 65 % r.h.
Excerpt: (§1) Die mit den zu prüfenden Verbindungen ausgerüsteten trockenen Wollmuster werden der Mottenechtheitsprüfung (Frassschutz gegen die Kleidermotte Tineola bisselliella Hum.) sowie der Echtheitsprüfung gegen Larven des Pelzkäfers (Attagenus piceus Oliv.) und Teppichkäfers (Anthrenus flavipes var. seminiveus) gemäss der Vorschrift des Schweizer Normenverbandes SNV 195901 unterworfen.
(§2) Es werden jeweils Larven von Tineola und Larven von Anthrenus und 6 bis 7 Wochen alte Larven von Attagenus zur Prüfung verwendet.
(§3) Aus dem behandelten Wollflanellmuster werden Stücke gleicher Grösse ausgeschnitten und 14 Tage lang bei konstanter Temperatur (28°C) und konstanter relativer Luftfeuchtigkeit (65 %) dem Angriff (Frass) von je 15 Larven des entsprechenden Schädlings ausgesetzt. Die Beurteilung für alle 3 Schädlinge erfolgt nach dem Gewichtsverlust des Wollmusters.
(§4) 12,5 ml der jeweiligen, die zu prüfenden Verbindungen Nr. 101, 102, 201, 203, 205, 301 und 302 enthaltenden Stammlösung gemäss Beispiel 4 werden mit Aethylenglykolmonoäthyläther, der 1 g/1 eines Netz- und Dispergiermittels enthält, verdünnt. Die'Verdünnung erfolgt in der Weise, dass in der erhaltenen Foulardflotte die Konzentration der jeweils zu prüfenden Verbindung so eingestellt ist, dass auf dem Wollgewebe nach dem foulardieren x ppm des jeweiligen Wirkstoffes vorhanden sind (siehe Tabelle 2). Jeweils 3 ml der erhaltenen Lösung werden in eine Kristallisierschale gegeben. Darin wird eine geköderte Rondelle aus Wollgewebe mit Hilfe einer Pinzette ca. 3 Sekunden lang benetzt. Die feuchten Rondellen werden dann zwischen 2 Aluminiumfolien foulardiert, und zwar derart, dass die abgequetschten Rondellen je 100 X, bezogen auf ihr Gewicht, an Flotte aufgenommen haben. Die feuchten Rondellen werden an der Luft getrocknet und den gleichen biologischen Prüfungen unterworfen, die in Beispiel 4 beschrieben sind. Die Ergebnisse sind in der nachfolgenden Tabelle 2 zusammengefassst: […]

[2] = system: Larven des Pelzkäfers (Attagenus piceus Oliv.); experiment: Fastness test against fur beetle larvae (SNV 195901) on wool treated by pad (Foulard) application, Example 5; assay type: in vivo; details: 15 larvae, 14 days, 28°C, 65 % r.h.
Excerpt: as §1, §2, §3, §4

[3] = system: Kleidermotte Tineola bisselliella Hum.; experiment: Moth-proofing test (feeding protection, SNV 195901) on wool treated in the exhaust bath, Example 4; assay type: in vivo; details: 15 larvae, 14 days, 28°C, 65 % r.h.
Description: (§5) Von den zu prüfenden Verbindungen Nr. 101, 102, 201, 203, 205, 301 und 302 werden Stammlösungen durch Auflösung von jeweils 50 mg der Wirksubstanz in 25 ml Aethylenglykolmonoäthyläther bereitet.
(§6) 3 g schwere, gut vorgenetzte Wollgewebstücke werden in eine 30°C warme wässrige Flotte eingebracht, die folgende Bestandteile enthält: • x ppm, bezogen auf das Wollgewicht, der jeweils zu prüfenden Verbindung (eine entsprechende Menge der oben beschriebenen Stammlösung wird der Flotte zugegeben). • 1 X, bezogen auf das Wollgewicht, 80%-ige Essigsäure. • 4 X, bezogen auf das Wollgewicht, Ammoniumsulfat. • 0,5 g/1 Flotte eines Netz- und Dispergiermittels.
(§7) Die Temperatur der Flotte wird innerhalb 20 Minuten auf 98°C gesteigert und 60 Minuten bei dieser Temperatur belassen. Nach dem Abkühlen werden die Muster einzeln mit Wasser gespült und bei Raumtemperatur getrocknet.
as §1, §2, §3
(§8) .Aus der nachfolgenden Tabelle 1 ist für die geprüften Verbindungen die jeweilige Einsatzkonzentration (in ppm, bezogen auf das Wollgewicht) und der durch den Schädlingsfrass verursachte Gewichtsverlust (in mg) zu entnehmen: […]

[4] = system: Larven des Pelzkäfers (Attagenus piceus Oliv.); experiment: Fastness test against fur beetle larvae (SNV 195901) on wool treated in the exhaust bath, Example 4; assay type: in vivo; details: 15 larvae, 14 days, 28°C, 65 % r.h.
Description: as §5, §6, §7, §1, §2, §3, §8

[5] = system: Larven des Teppichkäfers (Anthrenus flavipes var. seminiveus); experiment: Fastness test against carpet beetle larvae (SNV 195901) on wool treated in the exhaust bath, Example 4; assay type: in vivo; details: 15 larvae, 14 days, 28°C, 65 % r.h.
Description: as §5, §6, §7, §1, §2, §3, §8

[6] = system: die in Beispiel 4 genannten keratinfressenden Schädlinge; experiment: Protection of wool articles treated by spray application, Example 7; assay type: in vivo, Tineola bisselliella, Attagenus piceus, Anthrenus flavipes; details: 0,5%-ige solution sprayed, 2 x 15 g/m^2; about 400 ppm active on the material
Excerpt: Beispiel 7: Es wird jeweils eine 0,5%-ige Lösung der Verbindungen Nr. 101, 201, 202 und 301 in Methylenchlorid, Trichloräthylen oder einer tiefsiedenden Benzinfraktion angesetzt. Wollartikel werden mit Hilfe einer üblichen Sprüheinrichtung mit diesen Lösungen besprüht, so dass 2 x 15 g/m^2 an Wirkstofflösung appliziert werden. Bei einem Ausnützungseffekt des Aerosols von 30 % befinden sich dann etwa 400 ppm der jeweiligen Wirkstoffverbindung auf dem Material.

[7] = system: die in Beispiel 4 genannten keratinfressenden Schädlinge; experiment: Protection of wool articles treated in a dry-cleaning liquor, Example 6; assay type: in vivo, Tineola bisselliella, Attagenus piceus, Anthrenus flavipes; details: 10%-ige solution diluted 1:200 by volume in dry-cleaning solvent; wool spun to ca. 100 % solvent content, dried
Excerpt: Beispiel 6: Es wird jeweils eine 10%-ige Lösung der Verbindungen Nr. 101, 201, 202 und 301 in Aethylenglykolmonomethyläther hergestellt. Ein Volumenteil dieser Lösung wird mit 200 Volumen- 'teilen eines zur Trockenreinigung geeigneten Lösungsmittels, z.B. einer passenden Benzinfraktion oder Perchloräthylen, verdünnt. Gewünschtenfalls können noch reinigungsfördernde Zusätze beigefügt werden. Wollartikel werden nun wie üblich in diesen Reinigungsflüssigkeiten behandelt und anschliessend auf einen Lösungsmittelgehalt von ca. 100 % des Wollgewichtes abgeschleudert.

[8] = system: Kleidermotte Tineola bisselliella Hum.; experiment: Moth-proofing test (SNV 195901) on wool treated by pad (Foulard) application, Example 5; assay type: in vivo; details: 15 larvae, 14 days, 28°C, 65 % r.h.
Excerpt: as §1, §2, §3, §4

[9] = Einsatzkonzentration 125 ppm on wool
[10] = Einsatzkonzentration 7,5 ppm on wool
[11] = Einsatzkonzentration 7,5 ppm on wool weight
[12] = Einsatzkonzentration 125 ppm on wool weight
[13] = Einsatzkonzentration 30 ppm on wool
[14] = Einsatzkonzentration 250 ppm on wool
[15] = Einsatzkonzentration 30 ppm on wool weight
[16] = Einsatzkonzentration 300 ppm on wool weight
[17] = Einsatzkonzentration 15 ppm on wool

**Q.** CC1(C)[C@@H](C=C(Cl)Cl)[C@@H]1C(=O)OC(C#N)c1ccc(F)c(Oc2ccccc2)c1 (relative stereo) [Verbindung 302, (+)-trans-2,2-Dimethyl-3-(2,2-dichlorvinyl)-cyclopropancarbonsäure-3-phenoxy-4-fluor-a-cyanobenzylester] was tested. Which Gewichtsverlust [1, 9] did it give?
**A.** 16,3 mg

**Q.** And the Gewichtsverlust [2, 10]?
**A.** 9,3 mg

**Q.** What about the Gewichtsverlust [3, 11] of the same compound?
**A.** 0,4 mg

**Q.** And the Gewichtsverlust [4, 11]?
**A.** 51,4 mg

**Q.** And the Gewichtsverlust [5, 12]?
**A.** 48,0 mg

**Q.** How did the Gewichtsverlust [1, 9] turn out when CC1(C)C(C=C(Cl)Cl)C1C(=O)OC(C#N)c1ccc(F)c(Oc2ccccc2)c1 (mixture of isomers) [Verbindung 301, (±)-cis-2,2-Dimethyl-3-(2,2-dichlorvinyl)-cyclopropancarbonsäure-3-phenoxy-4-fluor-a-cyanobenzylester] was run?
**A.** 0,1 mg

**Q.** And the Gewichtsverlust [2, 10]?
**A.** 0,8 mg

**Q.** What about the Gewichtsverlust [3, 11] of the same compound?
**A.** 0 mg

**Q.** What about the Gewichtsverlust [4, 11] of the same compound?
**A.** 11,4 mg

**Q.** What about the “Schutz gegen keratinfressende Schädlinge” value [6] of the same compound?
**A.** gegen die in Beispiel 4 genannten keratinfressenden Schädlinge geschützt

**Q.** What about the Gewichtsverlust [5, 12] of the same compound?
**A.** 14,9 mg

**Q.** And the “Schutz gegen keratinfressende Schädlinge” value [7]?
**A.** hervorragend gegen die in Beispiel 4 genannten keratinfressenden Schädlinge geschützt

**Q.** For CC#CC(OC(=O)C1C(C=C(Cl)Cl)C1(C)C)c1cccc(Oc2ccccc2)c1 (mixture of isomers) [Verbindung 101, (±)-cis-2,2-Dimethyl-3-(2,2-dichlorvinyl)-cyclopropancarbonsäure-3-phenoxy-α-propin-1-yl-benzylester], which Gewichtsverlust [8, 13] is on record?
**A.** 1,0 mg

**Q.** And the Gewichtsverlust [1, 14]?
**A.** 1,1 mg

**Q.** And the Gewichtsverlust [2, 13]?
**A.** 2,0 mg

**Q.** And the Gewichtsverlust [3, 15]?
**A.** 1,2 mg

**Q.** And the Gewichtsverlust [4, 15]?
**A.** 9,0 mg

**Q.** And the “Schutz gegen keratinfressende Schädlinge” value [6]?
**A.** gegen die in Beispiel 4 genannten keratinfressenden Schädlinge geschützt

**Q.** What about the Gewichtsverlust [5, 16] of the same compound?
**A.** 9,2 mg

**Q.** What about the “Schutz gegen keratinfressende Schädlinge” value [7] of the same compound?
**A.** hervorragend gegen die in Beispiel 4 genannten keratinfressenden Schädlinge geschützt

**Q.** What does the source list for CC#CC(OC(=O)[C@H]1[C@H](C=C(Cl)Cl)C1(C)C)c1cccc(Oc2ccccc2)c1 (relative stereo) [Verbindung 102, (+)-trans-2,2-Dimethyl-3-(2,2-dichlorvinyl)-cyclopropancarbonsäure-3-phenoxy-a-propin-l-yl-benzylester]?
**A.** Gewichtsverlust [8, 13]: 4,4 mg; Gewichtsverlust [1, 14]: 27,1 mg; Gewichtsverlust [2, 13]: 15,3 mg; Gewichtsverlust [3, 15]: 2,6 mg; Gewichtsverlust [4, 15]: 43,4 mg; Gewichtsverlust [5, 16]: 51,7 mg

**Q.** For CC1(C)C(C=C(Cl)Cl)C1C(=O)OC(C#N)c1cccc(Oc2ccccc2)c1 (mixture of isomers) [Verbindung 202, (±)-cis-2,2-Dimethyl-3-(2,2-dichlorvinyl)-cyclopropancarbonsäure-3-phenoxy-a-cyano-benzylester], which “Schutz gegen keratinfressende Schädlinge” value [6] is on record?
**A.** gegen die in Beispiel 4 genannten keratinfressenden Schädlinge geschützt

**Q.** And the “Schutz gegen keratinfressende Schädlinge” value [7]?
**A.** hervorragend gegen die in Beispiel 4 genannten keratinfressenden Schädlinge geschützt

**Q.** How did the Gewichtsverlust [8, 10] turn out when CC1(C)C(C=C(Cl)Cl)C1C(=O)OCc1cccc(Oc2ccccc2)c1 (racemic) [Verbindung 201, (+)-cis-2,2-Dimethyl-3-(2,2-dichlorvinyl)-cyclopropancarbonsäure-3-phenoxybenzylester] was run?
**A.** 1,9 mg

**Q.** And the Gewichtsverlust [1, 9]?
**A.** 1,2 mg

**Q.** What about the Gewichtsverlust [2, 17] of the same compound?
**A.** 3,7 mg

**Q.** And the Gewichtsverlust [3, 11]?
**A.** 1,7 mg

**Q.** And the Gewichtsverlust [4, 15]?
**A.** 4,3 mg

**Q.** What about the “Schutz gegen keratinfressende Schädlinge” value [6] of the same compound?
**A.** gegen die in Beispiel 4 genannten keratinfressenden Schädlinge geschützt

**Q.** And the Gewichtsverlust [5, 12]?
**A.** 18,9 mg

**Q.** And the “Schutz gegen keratinfressende Schädlinge” value [7]?
**A.** hervorragend gegen die in Beispiel 4 genannten keratinfressenden Schädlinge geschützt

**Q.** With CC1(C)[C@@H](C=C(Cl)Cl)[C@@H]1C(=O)OCc1cccc(Oc2ccccc2)c1 (relative stereo) [Verbindung 203, (+)-trans-2,2-Dimethyl-3-(2,2-dichlorvinyl)-cyclopropancarbonsäure-3-phenoxybenzylester] as the compound, how does the Gewichtsverlust [8, 10] read?
**A.** 17,4 mg

**Q.** And the Gewichtsverlust [1, 9]?
**A.** 28,1 mg

**Q.** And the Gewichtsverlust [2, 17]?
**A.** 39,3 mg

**Q.** What about the Gewichtsverlust [3, 11] of the same compound?
**A.** 26,9 mg

**Q.** And the Gewichtsverlust [4, 15]?
**A.** 54,2 mg

**Q.** What about the Gewichtsverlust [5, 12] of the same compound?
**A.** 68,3 mg

**Q.** CC1(C)C(C=C(Cl)Cl)C1C(=O)OCc1cccc(Oc2ccccc2)c1 (mixture of isomers) [Verbindung 205, (+)-cis, trans-2,2-Dimethyl-3-(2,2-dichlorvinyl)-cyclopropancarbonsäure-3-phenoxybenzylester] was tested. Which Gewichtsverlust [8, 10] did it give?
**A.** 5,5 mg

**Q.** What about the Gewichtsverlust [1, 9] of the same compound?
**A.** 11,0 mg

**Q.** And the Gewichtsverlust [2, 17]?
**A.** 32,5 mg

**Q.** What about the Gewichtsverlust [3, 11] of the same compound?
**A.** 5,8 mg

**Q.** What about the Gewichtsverlust [4, 15] of the same compound?
**A.** 14,9 mg

**Q.** What about the Gewichtsverlust [5, 12] of the same compound?
**A.** 29,2 mg

Reference: patent EP0170611A1, “Process for protecting keratinic material against deterioration by keratin devouring insects” (priority 1984, dated 1986)
